# Source: patent US5319096A, “(1H-indol-1-yl)-2-(amino) acetamides and related (1H-indol-1-yl)-(aminoalkyl)amides, pharmaceutical composition and use” (Hoechst-Roussel Pharmaceuticals Inc., priority 1992, dated 1994)
# Counter-ions that a name gives are not always drawn.
# Columns and labels:
# [1] = test system: neurodegeneration in the rat striatum caused by intracerebral infusion of NMDA; conditions: cited from earlier work
# [2] = test system: NMDA-induced Striatal Lesion; assay: Protection Against NMDA-induced Striatal Lesion (% control enzyme activity, lesioned vs contralateral striatum); type: in vivo, Male Sprague Dawley rats; conditions: ip, NMDA 150 nanomoles, 7 days post surgery; for % Control Enzyme Activity ChAT: choline acetyltransferase; for % Control Enzyme Activity GAD: glutamic acid decarboxylase
# From the text: Glutamate, aspartate and other excitatory amino acids (EAA) are putative neurotransmitters at vertebrate CNS excitatory synapses. […] The neurotoxicity of EAA has led to the implication of their involvement in human neurodegenerative disorders such as Alzheimer's Disease. Subacute or chronic overexposure to endogenous neurotoxin may lead to the slow degeneration of neurons (Olney, J., Excitotoxic Amino Acids and Neuropsychiatric Disorders. Annu. Rev. Pharmacol. Toxicol. 30:47-71, 1990). […] The striatal lesion paradigm can be used to assess the neuroprotective potential of novel compounds.
# Testing of the compounds was carried out as follows: Male Sprague Dawley rats (Charles River) are housed under standard laboratory conditions as outlined in the "Guide for the Care and Use of Laboratory Animals" (National Institutes of Health Publications No. 85-23, Revised 1985). Food and water were provided ad libitum; lights were on from 0600-1800 h. Sterile techniques were used during surgery.
# Rats (250-320 g) were anesthetized with chloral hydrate (400 mg/kg i.p., 10 ml/kg) and mounted in a David Kopf® stereotaxic instrument. An incision was made in the scalp and the skull surface was exposed. All coordinates were taken from the point on the skull where bregma meets the midline suture. The adjustable incisor bar was set at 3.3 mm below horizontal but may be adjusted. A 1-2 mm burr hole in the skull was made with a dental drill 0.5 mm anterior to bregma and 3.0 mm lateral from the midline (Paxinos, G. and Watson, C., The Rat Brain in Stereotaxic Coordinates. New York: Academic Press, 2nd ed., 1986). […] The cannula remained in place for one minute before infusion began. A total volume of 1 μl of NMDA (150 nanomoles per μl) solution was infused slowly (0.2 μl/2 min, total time of infusion was 10 min). The cannula remained in place for 5 minutes and then was slowly withdrawn (approx. 0.1 mm every 12 sec). NMDA was dissolved in 0.1M sodium phosphate buffer, pH 7.4. An equally osmolar solution of sodium chloride was used as a control in the contralateral striatum. The burr hole was sealed with bone wax and the scalp sutured closed.
# The animals were sacrificed by decapitation seven days following surgery. The striatum was dissected over ice. […]
# The experimental compounds were dissolved in 0.9% NaCl or appropriate vehicle and administered i.p. either pre- and/or post-excitotoxin infusion. […] Analysis of variance was calculated by the Newman-Keuls test with the PHARM/PCS computer program (Tallarida, R. J. and Murray, R. B., Manual of Pharmacologic Calculations with Computer Programs, Springer-Verlag, New York, 1987).
# [3] = test system: direct infusion of NMDA or quinolinate into the rat striatum; conditions: cited from earlier work
# [4] = test system: global ischemia in the gerbil; conditions: cited from earlier work
# [5] = test system: striatal neurons, infusion of quinolinate; conditions: 100 mg/kg, i.p., 1 hour after infusion of quinolinate; cited from earlier work
smiles,measurement,setting,value
C[C@]12N[C@H](Cc3ccccc31)c1ccccc12 [dizocilpine],protection against neurodegeneration in the rat striatum,[1],protected against neurodegeneration in the rat striatum
same,% Control Enzyme Activity ChAT,"[2]; 10 mg/kg, pretreatment 60 min",104 % Control
same,% Control Enzyme Activity GAD,"[2]; 10 mg/kg, pretreatment 60 min",110 % Control
"NC1CCN(O)C1=O (stereo not drawn) [HA-966, 3-amino-1-hydroxypyrrolid-2-one]",neuroprotection,[3],significant neuroprotection
"NS(=O)(=O)c1cccc2c1c([N+](=O)[O-])cc1nc(O)c(O)nc12 [NBQX, 2,3-Dihydroxy-6-nitro-7-sulfamoylbenzo(F)quinoxaline]",protection against global ischemia,[4],protects against global ischemia in the gerbil
O=C(O)C1CN(CCCP(=O)(O)O)CCN1 (stereo not drawn) [CPP],protection of striatal neurons,[5],partial protection of striatal neurons
O=C(O)c1cc(O)c2ccc(Cl)cc2n1 [7-Chlorokynurenate],neuroprotection,[3],significant neuroprotection
NCC(=O)Nn1ccc2ccccc21 [[N-(1H-Indol-1-yl)-2-amino]acetamide hydrochloride],% Control Enzyme Activity ChAT,"[2]; 100 mg/kg, pretreatment 30 min",68 % Control
same,% Control Enzyme Activity GAD,"[2]; 100 mg/kg, pretreatment 30 min",63 % Control
